Laboratory results reported in patent US20100204265A1 (priority 2009, published 2010).

Experiments:
[1] = test system: ET (Huh-lucubineo-ET) cell line harboring I389luc-ubi-neo/NS3-3′/ET HCV replicon; test: Replicon assay (HCV replicon, luciferase readout); format: cell-based; conditions: Hepatitis C virus
Method in brief: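 Compounds at 10-point 2-fold dilutions (overall 0.1 nM to […], 0.5% DMSO) were applied to ET cells carrying a luciferase-neo HCV replicon, seeded a day earlier. After 48-72 hours, luciferase-based % inhibition was fitted with a Hill equation for EC50, and parallel WST-1 readings gave TC50.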

[2] = patients treated at currently recommended doses; cited from earlier work

**Q.** With CC(=O)N1CCCN(C(=O)c2nc3c(C(F)(F)F)cc(-c4ccoc4)cn3c2Cl)CC1 [Compound 325, 1-[4-(3-Chloro-6-furan-3-yl-8-trifluoromethyl-imidazo[1,2-a]pyridine-2-carbonyl)-[1,4]diazepan-1-yl]-ethanone] as the molecule, how does the EC50 [1] read?
**A.** > 50 µM

**Q.** With CS(=O)(=O)N1CCCN(C(=O)c2nc3c(C(F)(F)F)cc(-c4ccoc4)cn3c2Cl)CC1 [Compound 326, (3-Chloro-6-furan-3-yl-8-trifluoromethyl-imidazo[1,2-a]pyridin-2-yl)-(4-methanesulfonyl-[1,4]diazepan-1-yl)-methanone] as the molecule, how does the EC50 [1] read?
**A.** 11.4 µM

**Q.** Which EC50 [1] does the source give for O=C1NC(=O)C2(CCN(C(=O)c3nc4c(C(F)(F)F)cc(-c5ccoc5)cn4c3Cl)CC2)N1 [Compound 330, 8-(3-Chloro-6-furan-3-yl-8-trifluoromethyl-imidazo[1,2-a]pyridine-2-carbonyl)-1,3,8-triaza-spiro[4.5]decane-2,4-dione] here?
**A.** > 50 µM

**Q.** Which EC50 [1] does the source give for COC(=O)N1CCCN(C(=O)c2nc3c(C(F)(F)F)cc(-c4ccoc4)cn3c2Cl)CC1 [Compound 331, 4-(3-Chloro-6-furan-3-yl-8-trifluoromethyl-imidazo[1,2-a]pyridine-2-carbonyl)-[1,4]diazepane-1-carboxylic acid methyl ester] here?
**A.** 26.8 µM

**Q.** With NC(=O)c1ncn([C@@H]2O[C@H](CO)[C@@H](O)[C@H]2O)n1 [Ribavirin, 1-P-D-ribofuranosyl-1H-1,2,-4-triazole-3-carboxamide] as the molecule, how does the “significant hemolysis, share of patients” value [2] read?
**A.** 10-20%
